# Laboratory results as given in the supplement of paper PMC10307832.
# Columns and labels:
# Test in all cases: relative viability (nuclei count vs DMSO), 5 days (fraction); higher = more cells survive
# Erlotinib + Navitoclax = compound: C#Cc1cccc(Nc2ncnc3cc(OCCOC)c(OCCOC)cc23)c1 [Erlotinib] + CC1(C)CCC(c2ccc(Cl)cc2)=C(CN2CCN(c3ccc(C(=O)NS(=O)(=O)c4ccc(N[C@H](CCN5CCOCC5)CSc5ccccc5)c(S(=O)(=O)C(F)(F)F)c4)cc3)CC2)C1 [Navitoclax] (partner 0.5 µM)
# Procedure, shortened: (§1)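 After 5 days of treatment, lung cancer cells in 1536-well plates were fixed and stained in a single step (final 0.05% Triton X-100, 1% formaldehyde, 1 ug/ml Hoechst) and their nuclei counted on 4× images. Treatment had been applied by pin tool the day after seeding as one drug alone or as a fixed anchor-drug dose with five library-drug doses (not always all listed) in √10 steps. Relative viability is the nuclei count of treated wells divided by that of vehicle wells, and values are medians of duplicate plates.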
# AT9283 + Pictilisib = compound: O=C(Nc1c[nH]nc1-c1nc2ccc(CN3CCOCC3)cc2[nH]1)NC1CC1 [AT9283] + CS(=O)(=O)N1CCN(Cc2cc3nc(-c4cccc5[nH]ncc45)nc(N4CCOCC4)c3s2)CC1 [Pictilisib] (partner 1 µM)
# Procedure, shortened: as §1
# AT9283 + Palbociclib = compound: O=C(Nc1c[nH]nc1-c1nc2ccc(CN3CCOCC3)cc2[nH]1)NC1CC1 [AT9283] + CC(=O)c1c(C)c2cnc(Nc3ccc(N4CCNCC4)cn3)nc2n(C2CCCC2)c1=O [Palbociclib] (partner 0.5 µM)
# Procedure, shortened: as §1
# AT9283 + Crizotinib = compound: O=C(Nc1c[nH]nc1-c1nc2ccc(CN3CCOCC3)cc2[nH]1)NC1CC1 [AT9283] + C[C@@H](Oc1cc(-c2cnn(C3CCNCC3)c2)cnc1N)c1c(Cl)ccc(F)c1Cl [Crizotinib] (partner 1 µM)
# Procedure, shortened: as §1
# Erlotinib + Olaparib = compound: C#Cc1cccc(Nc2ncnc3cc(OCCOC)c(OCCOC)cc23)c1 [Erlotinib] + O=C(c1cc(Cc2n[nH]c(=O)c3ccccc23)ccc1F)N1CCN(C(=O)C2CC2)CC1 [Olaparib] (partner 8 µM)
# Procedure, shortened: as §1
Cell Line,relative viability (Erlotinib + Navitoclax; first compound 0.02 µM),relative viability (Erlotinib + Navitoclax; first compound 0.2 µM),relative viability (Erlotinib + Navitoclax; first compound 0.6325 µM),relative viability (Erlotinib + Navitoclax; first compound 2 µM),relative viability (AT9283 + Pictilisib; first compound 0.003 µM),relative viability (AT9283 + Pictilisib; first compound 0.03 µM),relative viability (AT9283 + Pictilisib; first compound 0.09487 µM),relative viability (AT9283 + Pictilisib; first compound 0.3 µM),relative viability (AT9283 + Palbociclib; first compound 0.003 µM),relative viability (AT9283 + Palbociclib; first compound 0.03 µM),relative viability (AT9283 + Palbociclib; first compound 0.09487 µM),relative viability (AT9283 + Palbociclib; first compound 0.3 µM),relative viability (AT9283 + Crizotinib; first compound 0.003 µM),relative viability (AT9283 + Crizotinib; first compound 0.03 µM),relative viability (AT9283 + Crizotinib; first compound 0.09487 µM),relative viability (AT9283 + Crizotinib; first compound 0.3 µM),relative viability (Erlotinib + Olaparib; first compound 0.02 µM),relative viability (Erlotinib + Olaparib; first compound 0.2 µM),relative viability (Erlotinib + Olaparib; first compound 0.6325 µM),relative viability (Erlotinib + Olaparib; first compound 2 µM)
NCI-H2228,1.28,0.909,0.679,0.676,0.355,0.259,0.141,0.0664,0.588,0.492,0.351,0.149,0.587,0.272,0.195,0.171,0.678,0.701,0.537,0.604
NCI-H2347,1.07,0.833,0.837,0.796,0.726,1.23,0.568,0.385,0.444,0.515,0.475,0.346,0.717,0.78,0.446,0.363,0.601,0.587,0.526,0.562
NCI-H2405,0.915,0.902,1.01,0.78,0.463,0.384,0.254,0.145,0.519,0.407,0.284,0.196,0.826,0.634,0.272,0.217,0.965,0.849,0.888,0.81
NCI-H3122,1.05,1.04,1.01,1.03,0.602,0.41,0.271,0.217,0.187,0.208,0.169,0.153,0.291,0.259,0.216,0.214,0.618,0.652,0.631,0.618
PC-3 [JPC-3],0.653,0.443,0.349,0.295,0.673,0.631,0.542,0.376,0.602,0.533,0.575,0.484,0.929,0.832,0.608,0.509,1.05,0.559,0.466,0.434
PC-14,0.935,,0.391,0.31,0.534,0.657,0.0566,0.0616,0.526,0.273,0.105,0.0809,0.959,0.731,0.559,0.159,0.272,0.168,0.135,0.106
RERF-LC-KJ,0.861,0.663,0.583,0.771,0.627,0.24,0.171,0.164,1.17,0.77,0.475,0.302,0.788,0.526,0.293,0.23,1,0.86,0.994,0.852
SK-LU-1,1.07,1.36,0.752,0.733,0.603,0.348,0.217,0.197,0.416,0.373,0.279,0.283,0.922,0.519,0.295,0.305,0.536,0.551,0.403,0.455
SK-MES-1,1.35,1.21,,0.574,0.345,0.314,0.158,0.147,0.365,0.311,0.255,0.2,1.02,0.883,0.84,0.256,0.821,0.563,0.465,0.346
SW 1573,0.922,1.05,,0.896,0.453,0.251,0.2,0.127,0.333,0.158,0.173,0.121,0.698,0.376,0.219,0.157,0.502,0.494,0.558,0.364
UMC-11,0.337,0.281,0.336,0.3,0.805,0.114,0.111,0.191,0.327,0.235,0.243,0.186,0.58,0.075,0.0835,0.132,0.987,0.426,0.477,0.324
